Experimental data from ChEMBL document CHEMBL1135275, “Structural approach of the mechanism of inhibition of alpha-chymotrypsin by coumarins” (Bioorg Med Chem Lett, 2002).

target: Chymotrypsinogen B (Bos taurus) (UniProt P00767); test: The compound was tested for inhibitory potency against Chymotrypsinogen
Sequence (P00767 16-146 limits assumed, other chains not shown): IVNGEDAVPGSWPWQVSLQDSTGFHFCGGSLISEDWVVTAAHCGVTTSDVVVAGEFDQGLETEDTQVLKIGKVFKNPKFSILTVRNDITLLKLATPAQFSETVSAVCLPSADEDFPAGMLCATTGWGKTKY
Sequence (P00767 149-245 limits assumed, other chains not shown): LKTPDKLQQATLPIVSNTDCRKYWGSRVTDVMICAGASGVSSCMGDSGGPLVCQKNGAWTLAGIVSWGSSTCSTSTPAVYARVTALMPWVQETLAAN

In order of rising K inact/Km:
1. O=C(Nc1ccccc1)c1cc2cc(CCl)ccc2oc1=O  200 M⁻¹ s⁻¹
2. O=C(c1ccccc1)c1cc2cc(CCl)ccc2oc1=O  2400 M⁻¹ s⁻¹
3. O=C(Cc1ccccc1)c1cc2cc(CCl)ccc2oc1=O  10000 M⁻¹ s⁻¹
4. O=C(Sc1ccccc1)c1cc2cc(CCl)ccc2oc1=O  48000 M⁻¹ s⁻¹
5. O=C(Oc1ccccc1)c1cc2cc(CCl)ccc2oc1=O  100000 M⁻¹ s⁻¹
